From paper PMC9411704, “Assessment of the Carcinogenic Potential of Pretomanid in Transgenic Tg.rasH2 Mice” (International Journal of Toxicology, 2022)
Like-named read-outs stand apart in the source and are kept apart here.

Test system: Tg.rasH2 mice
Conditions: for Incidence of lung adenoma, multiple / Incidence of lung adenoma, single / Incidence of lung carcinoma / Incidence of lung tumors, combined / Incidence of thymus, thymoma / Incidence of urethra papilloma / Incidence of Harderian gland carcinoma / Incidence of Harderian gland adenoma / Incidence of hemangiosarcoma, combined / Incidence of hemangiosarcoma, multicentric (includes abdominal skin and thoracic wall) / Incidence of hemangiosarcoma, spleen / Incidence of hemangiosarcoma, uterus / Incidence of hemangiosarcoma, vagina / Survival rate / Incidence of hemangiosarcoma, kidney / Incidence of hemangiosarcoma, spinal cord, lumbar: 26 weeks
Experimental: The vehicle was 0.5% carboxymethylcellulose (CMC) with 0.1% Tween 80 (v/v). The vehicle and pretomanid formulations were administered to mice by oral gavage once daily at a dosing volume of 10 mL/kg. Individual dose volumes were calculated based on each animal’s most recently recorded body weight. The dose formulations were magnetically stirred at room temperature for at least 30 minutes prior to and during dosing. The positive control was urethane in 0.9% sodium chloride and was administered via intraperitoneal injection for a total of three times. The positive control formulation was allowed to stand at room temperature for at least 30 minutes and inverted several times prior to dose administration. Aliquots (0.5 to 1.0 mL) were collected from the top, bottom, and middle of the first (week 1), interim (week 13), and last (week 25) pretomanid dose formulations to assess the accuracy of the concentration and/or homogeneity.
Male and female Tg.rasH2 [CByB6F1-Tg(HRAS)2Jic (+/−hemizygous c-Ha-ras)] mice (n = 110/sex) approximately 5 weeks of age were assigned to the main cohort groups to assess carcinogenicity. Male and female wild type CByB6F1 mice [CByB6F1-Tg(HRAS)2Jic (−/−homozygous c-Ha-ras)] (n = 34/sex) approximately 6 weeks of age were assigned to the cohort of mice used to assess the toxicokinetics of pretomanid and its M50 metabolite. […] All mice were obtained from Taconic Biosciences (Germantown, NY). The supplier verified that the mice were murine pathogen-free and females were nulliparous and non-pregnant. At the time of dosing initiation (Day 1), the toxicokinetic mice were approximately 8 weeks of age. On Day 1 of the study, the body weights of the main cohort mice ranged from 19.2 to 25.9 grams (males) and from 15.9 to 20.4 grams (females), and the body weights of the TK cohort mice ranged from 23.4 to 30.2 grams (males) and from 17.6 to 23.5 grams (females).
This study assessed the carcinogenic potential of pretomanid following repeated oral gavage administration once daily for 26 weeks in hemizygous Tg.rasH2 [CByB6F1-Tg(HRAS)2Jic (+/− hemizygous c-Ha-ras)] mice. This study also evaluated the TK profile of pretomanid and metabolite M50 in wild-type CByB6F1 [CByB6F1-Tg(HRAS)2Jic (−/−homozygous c-Ha-ras)] mice. The study was conducted under GLP regulations.
For carcinogenicity assessment (main cohort), 25 mice/sex were included in the vehicle control and pretomanid-treated groups. At the time of dosing initiation (Day 1), the main cohort mice used for assessing carcinogenicity were approximately 7 weeks of age and weighed between 15.9 to 20.4 g (females) and 19.2 to 25.9 g (males). Male groups (Groups 2, 4, and 6) received pretomanid in vehicle at doses of 5, 15, and 40 mg/kg/day, respectively. Female groups (Groups 3, 5, and 7) received pretomanid in vehicle at doses of 10, 30, and 80 mg/kg/day. Positive control mice (n = 10/sex) were included in the main cohort and received three intraperitoneal injections of urethane in saline (1000 mg/kg/injection) on Days 1, 3, and 5. The test and control articles were administered at a dose volume of 10 mL/kg body weight.
Clinical signs, body weights, and food consumption were assessed for the main cohort animals to monitor animal health and any potential toxicity from pretomanid administration. In-life measurements were recorded in Provantis™ Version 9.4.6.3 (Instem, Philadelphia, PA).
All animals, including those in the TK cohort, were observed twice daily for morbidity and mortality. For animals in the main cohort, cage side observations were performed on the day of dosing within 2 hours after the last animal in each group was dosed (Days 1, 3, and 5 for positive control animals).

[1] = female, Tg.rasH2 [CByB6F1-Tg(HRAS)2Jic (+/- hemizygous c-Ha-ras)], mouse, in vivo, po, 10 mg/kg/day
[2] = female, Tg.rasH2 [CByB6F1-Tg(HRAS)2Jic (+/- hemizygous c-Ha-ras)], mouse, in vivo, po, 30 mg/kg/day
[3] = female, Tg.rasH2 [CByB6F1-Tg(HRAS)2Jic (+/- hemizygous c-Ha-ras)], mouse, in vivo, po, 80 mg/kg/day
[4] = female, Tg.rasH2 [CByB6F1-Tg(HRAS)2Jic, hemizygous c-Ha-ras], mouse, in vivo, po, 10 mg/kg/day
[5] = female, Tg.rasH2 [CByB6F1-Tg(HRAS)2Jic, hemizygous c-Ha-ras], mouse, in vivo, po, 30 mg/kg/day
[6] = female, Tg.rasH2 [CByB6F1-Tg(HRAS)2Jic, hemizygous c-Ha-ras], mouse, in vivo, po, 80 mg/kg/day
[7] = male, Tg.rasH2 [CByB6F1-Tg(HRAS)2Jic (+/- hemizygous c-Ha-ras)], mouse, in vivo, po, 5 mg/kg/day
[8] = male, Tg.rasH2 [CByB6F1-Tg(HRAS)2Jic (+/- hemizygous c-Ha-ras)], mouse, in vivo, po, 15 mg/kg/day
[9] = male, Tg.rasH2 [CByB6F1-Tg(HRAS)2Jic (+/- hemizygous c-Ha-ras)], mouse, in vivo, po, 40 mg/kg/day
[10] = male, Tg.rasH2 [CByB6F1-Tg(HRAS)2Jic, hemizygous c-Ha-ras], mouse, in vivo, po, 5 mg/kg/day
[11] = male, Tg.rasH2 [CByB6F1-Tg(HRAS)2Jic, hemizygous c-Ha-ras], mouse, in vivo, po, 15 mg/kg/day
[12] = male, Tg.rasH2 [CByB6F1-Tg(HRAS)2Jic, hemizygous c-Ha-ras], mouse, in vivo, po, 40 mg/kg/day

O=[N+]([O-])c1cn2c(n1)OC[C@@H](OCc1ccc(OC(F)(F)F)cc1)C2 [Pretomanid, (6S)-2-nitro-6-{[4-(trifluoromethoxy)benzyl]oxy}-6,7-dihydro-5H-imidazo[2,1-b][1,3]oxazine]
Early death: cause of death (Group 3F, female, 10 mg/kg/d): Multicentric hemangiosarcoma
Early death: day of death (Group 3F, female, 10 mg/kg/d): 184
Early death: interpretation (Group 3F, female, 10 mg/kg/d): Natural death
Early death: cause of death (Group 5F, female, 30 mg/kg/d): Caught in feeder
Early death: day of death (Group 5F, female, 30 mg/kg/d): 7
Early death: interpretation (Group 5F, female, 30 mg/kg/d): Accidental
Early death: interpretation (Group 7F, female, 80 mg/kg/d (two animals)): Natural death
Incidence of lung adenoma, multiple [1]: 0%
Incidence of lung adenoma, single [1]: 0%
Incidence of lung carcinoma [1]: 0%
Incidence of lung tumors, combined [1]: 0%
Incidence of thymus, thymoma [1]: 4%
Incidence of urethra papilloma [1]: 0%
Incidence of Harderian gland carcinoma [2]: 0%
Incidence of lung adenoma, multiple [2]: 0%
Incidence of lung adenoma, single [2]: 4%
Incidence of lung carcinoma [2]: 0%
Incidence of lung tumors, combined [2]: 4%
Incidence of thymus, thymoma [2]: 0%
Incidence of urethra papilloma [2]: 0%
Incidence of Harderian gland carcinoma [3]: 8%
Incidence of lung adenoma, multiple [3]: 0%
Incidence of lung adenoma, single [3]: 0%
Incidence of lung carcinoma [3]: 8%
Incidence of lung tumors, combined [3]: 8%
Incidence of thymus, thymoma [3]: 0%
Incidence of urethra papilloma [3]: 4%
Incidence of Harderian gland adenoma [4]: 0%
Incidence of Harderian gland carcinoma [4]: 4%
Incidence of hemangiosarcoma, combined [4]: 8%
Incidence of hemangiosarcoma, multicentric (includes abdominal skin and thoracic wall) [4]: 4%
Incidence of hemangiosarcoma, spleen [4]: 0%
Incidence of hemangiosarcoma, uterus [4]: 4%
Incidence of hemangiosarcoma, vagina [4]: 0%
Incidence of Harderian gland adenoma [5]: 8%
Incidence of hemangiosarcoma, combined [5]: 4%
Incidence of hemangiosarcoma, multicentric (includes abdominal skin and thoracic wall) [5]: 0%
Incidence of hemangiosarcoma, spleen [5]: 0%
Incidence of hemangiosarcoma, uterus [5]: 0%
Incidence of hemangiosarcoma, vagina [5]: 4%
Incidence of Harderian gland adenoma [6]: 0%
Incidence of hemangiosarcoma, combined [6]: 8%
Incidence of hemangiosarcoma, multicentric (includes abdominal skin and thoracic wall) [6]: 0%
Incidence of hemangiosarcoma, spleen [6]: 8%
Incidence of hemangiosarcoma, uterus [6]: 0%
Incidence of hemangiosarcoma, vagina [6]: 0%
Survival rate (females, high-dose (80 mg/kg/day)): 92%
Survival rate (females, low-dose (10 mg/kg/day)): 96%
Survival rate (females, mid-dose (30 mg/kg/day)): 100%
Incidence of Harderian gland adenoma [7]: 4%
Incidence of Harderian gland carcinoma [7]: 0%
Incidence of hemangiosarcoma, combined [7]: 4%
Incidence of hemangiosarcoma, kidney [7]: 4%
Incidence of hemangiosarcoma, spinal cord, lumbar [7]: 0%
Incidence of hemangiosarcoma, spleen [7]: 0%
Incidence of Harderian gland adenoma [8]: 0%
Incidence of hemangiosarcoma, combined [8]: 0%
Incidence of hemangiosarcoma, kidney [8]: 0%
Incidence of hemangiosarcoma, spinal cord, lumbar [8]: 0%
Incidence of hemangiosarcoma, spleen [8]: 0%
Incidence of Harderian gland adenoma [9]: 0%
Incidence of hemangiosarcoma, combined [9]: 12%
Incidence of hemangiosarcoma, kidney [9]: 0%
Incidence of hemangiosarcoma, spinal cord, lumbar [9]: 0%
Incidence of hemangiosarcoma, spleen [9]: 12%
Incidence of lung adenoma, multiple [10]: 0%
Incidence of lung adenoma, single [10]: 20%
Incidence of lung carcinoma [10]: 0%
Incidence of lung tumors, combined [10]: 20%
Incidence of Harderian gland carcinoma [11]: 0%
Incidence of lung adenoma, multiple [11]: 0%
Incidence of lung adenoma, single [11]: 8%
Incidence of lung carcinoma [11]: 0%
Incidence of lung tumors, combined [11]: 8%
Incidence of Harderian gland carcinoma [12]: 4%
Incidence of lung adenoma, multiple [12]: 0%
Incidence of lung adenoma, single [12]: 4%
Incidence of lung carcinoma [12]: 0%
Incidence of lung tumors, combined [12]: 4%
Survival rate (males, high-dose (40 mg/kg/day)): 100%
Survival rate (males, low-dose (5 mg/kg/day)): 100%
Survival rate (males, mid-dose (15 mg/kg/day)): 100%
Incidence of hemangiosarcoma vs vehicle control (mouse, in vivo): did not significantly increase
Incidence of lung tumors vs vehicle control (mouse, in vivo): did not significantly increase
Incidence of non-vascular and non-pulmonary tumors (mouse, in vivo): did not significantly increase
Non-neoplastic microscopic findings (mouse, in vivo): did not produce non-neoplastic microscopic findings
Mean food consumption from Day 1 to 183 vs vehicle control (mouse, in vivo, 30 mg/kg/day): significantly increased
Clinical signs of toxicity (mouse, in vivo, po): did not produce clinical signs of toxicity
Effect on food consumption (mouse, in vivo, po): did not affect food consumption
